From the Kinase Knowledgebase extract (Sharma et al. 2016) come the findings set out here.

Molecules are shown by their SMILES.

The target of the first test is ROCK2 (human) (UniProt O75116). The test can be described thus: Inhibition of ROCK2 Kinase Activity.
ROCK2 (human), sequence (O75116 whole entry, looked up): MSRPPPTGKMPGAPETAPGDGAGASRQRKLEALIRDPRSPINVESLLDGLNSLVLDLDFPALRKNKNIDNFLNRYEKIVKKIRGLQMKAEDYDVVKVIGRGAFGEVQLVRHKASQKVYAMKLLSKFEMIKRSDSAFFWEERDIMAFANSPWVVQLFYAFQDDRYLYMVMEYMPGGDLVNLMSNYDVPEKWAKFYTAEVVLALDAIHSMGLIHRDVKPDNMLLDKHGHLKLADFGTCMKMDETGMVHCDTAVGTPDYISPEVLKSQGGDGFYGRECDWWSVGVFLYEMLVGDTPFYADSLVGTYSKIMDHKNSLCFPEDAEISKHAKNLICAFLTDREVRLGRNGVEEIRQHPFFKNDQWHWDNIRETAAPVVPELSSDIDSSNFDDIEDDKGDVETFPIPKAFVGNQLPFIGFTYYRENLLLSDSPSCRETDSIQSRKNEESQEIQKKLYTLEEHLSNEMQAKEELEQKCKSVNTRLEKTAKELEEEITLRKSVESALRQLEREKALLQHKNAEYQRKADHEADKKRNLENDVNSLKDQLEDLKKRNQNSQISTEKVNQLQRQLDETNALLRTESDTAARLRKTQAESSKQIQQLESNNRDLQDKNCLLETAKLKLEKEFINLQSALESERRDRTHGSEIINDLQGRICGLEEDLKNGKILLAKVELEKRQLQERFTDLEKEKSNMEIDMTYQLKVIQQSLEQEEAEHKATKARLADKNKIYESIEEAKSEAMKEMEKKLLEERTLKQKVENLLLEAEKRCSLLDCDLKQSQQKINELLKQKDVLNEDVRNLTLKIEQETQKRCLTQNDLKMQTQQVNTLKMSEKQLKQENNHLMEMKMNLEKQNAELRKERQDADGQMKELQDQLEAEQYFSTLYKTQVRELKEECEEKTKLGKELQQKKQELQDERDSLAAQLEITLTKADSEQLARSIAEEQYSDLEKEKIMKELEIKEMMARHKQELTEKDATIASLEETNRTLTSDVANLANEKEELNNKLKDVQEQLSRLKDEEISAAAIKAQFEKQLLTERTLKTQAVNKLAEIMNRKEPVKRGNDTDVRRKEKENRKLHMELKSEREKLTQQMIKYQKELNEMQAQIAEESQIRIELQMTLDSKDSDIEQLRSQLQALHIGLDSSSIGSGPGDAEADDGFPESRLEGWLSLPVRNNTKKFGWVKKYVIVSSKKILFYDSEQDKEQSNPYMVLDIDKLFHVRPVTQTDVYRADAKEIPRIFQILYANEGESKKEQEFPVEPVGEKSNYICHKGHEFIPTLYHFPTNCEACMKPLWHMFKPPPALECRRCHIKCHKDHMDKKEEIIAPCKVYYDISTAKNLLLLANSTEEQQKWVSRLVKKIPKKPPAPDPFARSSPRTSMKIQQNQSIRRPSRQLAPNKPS
Details: not given
For `C=CC[C@@H](N)[C@H]1CC[C@H](C(=O)Nc2ccncc2)CC1`, the IC50 – broadly, the concentration that inhibits the measured activity by half – is 1.9 µM.
Still for that read-out and setting: the figure for `CCCCCCCCN(N)[C@H]1CC[C@H](C(=O)Nc2ccncc2)CC1` is 6.5 µM.

Staying with this test, now noted: concentration not given here.
Take `C=CCC(NC)[C@H]1CC[C@H](C(=O)Nc2ccncc2)CC1` (stereo partly drawn): the inhibition (usually the relative decrease from the control value, in per cent) stood at 45%.
With `NN(Cc1ccccc1)[C@H]1CC[C@H](C(=O)Nc2ccncc2)CC1`, the inhibition came out at 61%.
Still for that read-out and setting: the figure for `NN(CCc1ccccc1)[C@H]1CC[C@H](C(=O)Nc2ccncc2)CC1` is 46%; for `CCCN(N)[C@H]1CC[C@H](C(=O)Nc2ccncc2)CC1` it is 45%.
Same read-out and setting: for `CN(N)[C@H]1CC[C@@H](C(=O)Nc2ccncc2)CC1` the value was 33%; for `NN(CC(c1ccccc1)c1ccccc1)[C@H]1CC[C@H](C(=O)Nc2ccncc2)CC1`, 45%; for `CC(C)CCN(N)[C@H]1CC[C@H](C(=O)Nc2ccncc2)CC1`, 43%.
Still for that read-out and setting: for `CC(C)N(N)[C@H]1CC[C@@H](C(=O)Nc2ccncc2)CC1` the value was 25%; for `NN(Cc1ccccc1)[C@H]1CC[C@@H](C(=O)Nc2ccncc2)CC1`, 32%.
Molecule `NN(Cc1ccc(OCc2ccccc2)cc1)[C@H]1CC[C@H](C(=O)Nc2ccncc2)CC1` gave an inhibition of 59%.
`C=CCC(NCc1ccccc1)[C@H]1CC[C@H](C(=O)Nc2ccncc2)CC1` (stereo partly drawn) had an inhibition of 44%.
In turn, `CCCN(N)[C@H]1CC[C@@H](C(=O)Nc2ccncc2)CC1` returned an inhibition of 19%.
Regarding `C=CC[C@@H](N)[C@H]1CC[C@H](C(=O)Nc2ccncc2)CC1`, the inhibition was determined as 81%.
Take `C=CC[C@H](N)[C@H]1CC[C@H](C(=O)Nc2ccncc2)CC1`: the inhibition came out at 63%.
`CC(C)CCN(N)[C@H]1CC[C@@H](C(=O)Nc2ccncc2)CC1` displayed an inhibition of 13%.
Molecule `C=CCC(N)[C@H]1CC[C@H](C(=O)Nc2ncnc3[nH]cnc23)CC1` (stereo partly drawn) displayed an inhibition of 0%.
Molecule `NN(CC1CCCCC1)[C@H]1CC[C@H](C(=O)Nc2ccncc2)CC1` yielded an inhibition of 40%.
On the same count and under the same terms, for `CN(N)[C@H]1CC[C@H](C(=O)Nc2ccncc2)CC1` the value was 63%; for `CCCCCCCCN(N)[C@H]1CC[C@H](C(=O)Nc2ccncc2)CC1`, 53%; for `CC(C)N(N)[C@H]1CC[C@H](C(=O)Nc2ccncc2)CC1`, 45%.
`NN(C/C=C/c1ccccc1)[C@H]1CC[C@H](C(=O)Nc2ccncc2)CC1` returned an inhibition of 49%.
